Measurements reported in paper PMC8241751, “Influence of the Dabcyl group on the cellular uptake of cationic peptides: short oligoarginines as efficient cell-penetrating peptides” (Amino Acids, 2021).
One block for each compound: values may come before it.

Columns and labels:
Type in all cases: cell-based, human
[1] = system: HL-60 cells; experiment: In vitro cytostatic activity (MTT) on HL-60
Procedure: The cells (HL-60 or MCF-7) were grown to confluency and were plated into 96-well plate with initial cell number of 5 × 10^3 per well. After 24 h incubation at 37 °C, cells were treated with the compounds at 1.28 × 10^–3–100 μM concentration range for 3 h in 200 μL final volume. Control cells were treated with serum free medium at 37 °C for 3 h. After incubation the cells were washed twice with serum free medium. For the analysis of the in vitro cytostatic effect, cells were cultured for an additional 72 h in serum containing medium. On day 4, MTT assay was carried out to determine the IC50 values of the compounds. Briefly, 45 μL of MTT solution was added to each well (2 mg/mL, dissolved in serum-free medium). Following the 4 h incubation, plates were centrifuged at 900 g for 5 min, and the supernatant was removed. The precipitated purple crystals were dissolved in 100 μL DMSO and the absorbance was determined at λ = 540 nm and λ = 620 nm using ELISA plate reader (iEMSReader, Labsystems, Finland). The percent of cytostasis was calculated using the following equation: Cytostatic effect (%) = [1 − (ODtreated/ODcontrol)] × 100; where ODtreated and ODcontrol correspond to the optical densities of the treated and the untreated control cells, respectively. In each case three independent experiments were carried out with four parallel measurements. […] The curves were defined using MicrocalTM Origin (version 9.2) software: cytostasis was plotted as a function of concentration, fitted to a sigmoidal curve, and based on this curve, the IC50 value was determined.

[2] = system: HeLa cells; experiment: Confocal microscopy of internalisation into HeLa cells; conditions: 37 °C
Procedure: HeLa cells (2.0 × 10^5 cells) seeded in 35-mm glass-bottomed dishes (Iwaki) were cultured at a 37 °C incubator for 24 h. The cells were then incubated with peptide in α-MEM( +) and α-MEM(–) for 30 min at 37 °C or 4 °C. After washing with PBS( +) containing 0.5% (w/v) heparin, intracellular distribution of the fluorescently-labelled peptides was analysed without fixing using a confocal microscope (FV1000, Olympus). For time-lapse imaging, the cells were placed at 37 °C in a microchamber (MI-IBC-IF, Olympus) attached on the stage of the inverted microscope. The cells were then treated with 5 µM of Dabcyl–Arg6–Lys(Rh)–NH2 or Dabcyl–Arg4–Lys(Cf)–NH2 in α-MEM( +) or α-MEM(–). Time 0 represents the image immediately after the addition of conjugates.

[3] = system: HeLa cells; experiment: Cellular uptake by flow cytometry on HeLa cells; conditions: 30 min; for Cellular uptake in the presence of serum: α-MEM(+), lowest studied concentration (2.5 μM)
Procedure: HeLa cells (8.0 × 10^4/well) in α-MEM( +) were cultured in 24-well microplates overnight at 37 °C. Cells were treated with fluorescently-labelled peptides (2.5, 5 and 10 μM) in α-MEM( +) and α-MEM without 10% BS [α-MEM(–)], respectively, for 30 min at 37 °C. After being washed with phosphate-buffered saline (PBS), cells were incubated with 0.01% trypsin in PBS for 10 min at 37 °C. The collected cells were then centrifuged at 800 g for 5 min at 4 °C, washed twice with PBS, and subjected to flow cytometry analysis (Attune NxT Flow Cytometer, ThermoFisher). Each sample was analysed over 10,000 events.

Compound: CN(C)c1ccc(/N=N/c2ccc(C(=O)N[C@@H](CCCNC(=N)N)C(=O)N[C@@H](CCCNC(=N)N)C(=O)N[C@@H](CCCNC(=N)N)C(=O)N[C@@H](CCCNC(=N)N)C(=O)N[C@@H](CCCNC(=N)N)C(=O)N[C@@H](CCCNC(=N)N)C(=O)N[C@@H](CCCCN)C(N)=O)cc2)cc1 [Dabcyl–Arg6–Lys–NH2]
IC50 ([1]; HL-60, 3 h incubation, then 3 days in serum-containing medium, MTT assay, ± sd, three independent experiments with four parallels): > 100 µM
Cytostatic effect on HL-60 cells ([1]; up to c = 100 μM): no cytostatic effect

Compound: CN(C)c1ccc(C(=O)N[C@@H](CCCNC(=N)N)C(=O)N[C@@H](CCCNC(=N)N)C(=O)N[C@@H](CCCNC(=N)N)C(=O)N[C@@H](CCCNC(=N)N)C(=O)N[C@@H](CCCNC(=N)N)C(=O)N[C@@H](CCCNC(=N)N)C(=O)N[C@@H](CCCCNC(=O)c2ccc3c(c2)C(=O)OC32c3ccc(O)cc3Oc3cc(O)ccc32)C(N)=O)cc1 [Dmab–Arg6–Lys(Cf)–NH2]
Effect on the cell viability (morphology, number of cells) ([2]; 1-20 μM, confocal microscopy): no effect on the cell viability

Cellular uptake in the presence of serum [3]: undetectable
Compound: Ac–RRRRRRK(Rh)–NH2 [Ac–Arg6–Lys(Rh)–NH2, acetylated hexaarginine with carboxytetramethylrhodamine on lysine]
Intracellular distribution ([2]; α-MEM(–), 5 and 10 μM, 30 min): punctate distribution

Internalisation in the absence of serum compared to serum (+) ([3]; 2.5 µM, 37 °C): twice
Cellular uptake, times higher than hexaarginine's ([3]; absence of serum, 2.5 µM, 37 °C): 3 times
Cellular uptake in the presence of serum [3]: markedly pronounced
Morphology of the cells ([2]; α-MEM(–), 5 and 10 μM, 30 min, cell number also decreased): dramatically changed
Compound: Dabcyl–RRRRRRK(Rh)–NH2 [Dabcyl–Arg6–Lys(Rh)–NH2, Dabcyl-modified hexaarginine with carboxytetramethylrhodamine on lysine]
Time needed to get well detectable signal with diffuse cytosolic distribution ([2]; 5 μM, α-MEM(+), time-lapse imaging): 25 min
Threshold concentration above which distribution becomes diffuse ([2]; 30 min, confocal microscopy): under 5 μM
Intracellular distribution ([2]; α-MEM(+) with serum, 10 µM, 30 min): diffuse cytosolic localisation
Intracellular distribution ([2]; α-MEM(–), 2.5 μM, 30 min): diffuse distribution pattern
